One may read the solubility as the dissolved amount per volume that the medium holds. The low end stands for little dissolved substance, the high end for much dissolved substance.

These results are taken from patent publication US20130259935A1, “PHARMACEUTICAL COMPOSITIONS COMPRISING GLIMEPIRIDE AND POLYETHYLENE GLYCOL CASTOR OIL” (LEK PHARMACEUTICALS D.D., priority 2010, published 2013).

Molecules are shown by their SMILES. In brackets after ≈: the same amount, converted by molar mass.

This series is described as follows: Solubility of glimepiride, pH-dependent. To be noted: for solubility: phosphate buffer, thermodynamic from solid. The class given is physicochemical. As for the experimental part:
Glimepiride has very low and pH-dependent solubility. […] In media with pH around 7 the solubility of glimepiride is 0.001 mg/mL. At a pH 8, the solubility of glimepiride only slightly increases to 0.03 mg/mL. […] Being insoluble according to the present invention means that the solubility in water is lower than 10 mg/mL. […] Solubility as meant herein is measured using USP apparatus 2 with agitation at 75 RPM. The dissolution medium is phosphate buffer maintained at 37° C. Dissolution as meant herein is measured using HPLC.

Take `CCC1=C(C)CN(C(=O)NCCc2ccc(S(=O)(=O)NC(=O)N[C@H]3CC[C@H](C)CC3)cc2)C1=O` [glimepiride, Glimepiride]: the solubility reads like this: (37 °C, pH 8, aqueous buffer) 30 µg/mL (≈ 61.1 µM); (aqueous buffer, acidic medium, 37° C.) less than 1 µg/mL. Moreover, the “solubility in water (in words)” value (water, insoluble means lower than 10 mg/mL) is given as “insoluble in water”.
